Entries after “also recorded” stand apart in the source; their conditions may differ.
Key:
[1] = system: hsa-let-7i; test: Real-time quantitative RT-PCR of mature let-7i; type: cell-based, human
Protocol: (§1) HCT116 cells were grown in DMEM media supplemented with 10% fetal bovine serum and cultured at 37° C. For reverse transcription, total RNA was extracted using mirVana RNA isolation kit and reverse transcription performed using Taqman Small RNA Assays with predesigned primer specific to mature let-7 (Applied Biosystems). […] Western blots were conducted using anti-HMGA2 (Cell Signaling), LIN28 (abcam), anti-V5 (Invitrogen), eIF5A1 (Epitomics), and Actin (Sigma). […] Pre-designed Silencer Select siRNAs (Invitrogen) were obtained to specifically knockdown eIFSA isoforms. […] All bars show mean±s.d and statistical analysis was performed by using Student's t-test (*P<0.05; **P<0.01, ***P<0.001).
RNA Isolation and Real-Time Quantitative RT-PCR.
Total RNA was extracted from cells using the miRVana RNA isolation kit (Ambion) and measured using Thermo Scientific NanoDrop 2000. miRNA levels were measured using an Applied Biosystems 7500 HT PCR instrument with Taqman microRNA assay kits. Controlled reactions were confirmed by excluding reverse transcriptase to confirm amplification from cDNA. Results were analyzed using comparative Ct method between untreated and treated cells. Statistical analysis was performed using two tailed Student's t-tests.

[2] = system: colorectal cancer cells (HCT116); test: Non-coding RNA microarray of DFMO treated vs untreated cells; type: cell-based, human; conditions: 96 h
Protocol: HCT116 cells were grown in DMEM media supplemented with 10% fetal bovine serum and cultured at 37° C. For reverse transcription, total RNA was extracted using mirVana RNA isolation kit and reverse transcription performed using Taqman Small RNA Assays with predesigned primer specific to mature let-7 (Applied Biosystems). […] Western blots were conducted using anti-HMGA2 (Cell Signaling), LIN28 (abcam), anti-V5 (Invitrogen), eIF5A1 (Epitomics), and Actin (Sigma). Locked Nucleic Acid (LNA) anti-sense oligos were purchased from Exiqon and directed against seed region of let-7 as described previously (Obad et al., 2011). Pre-designed Silencer Select siRNAs (Invitrogen) were obtained to specifically knockdown eIFSA isoforms. All transfections were conducted using Lipofectamine 2000 as described by manufacturer for up to 48 h. All bars show mean±s.d and statistical analysis was performed by using Student's t-test (*P<0.05; **P<0.01, ***P<0.001).
Non-Coding RNA Microarray.
Samples for miRNA profiling studies were processed by Asuragen Services (Austin, Tex.), according to the company's standard operating procedures. Following incoming sample quality control (QC) assessment, the 3′ ends of RNA molecules in total RNA samples were labeled with biotin according to the company's standard protocol. Labeled RNA (100 ng total RNA per sample) was purified and hybridized to Affymetrix GeneChip® miRNA Arrays (Affymetrix, Santa Clara, Calif.). Hybridization, washing, staining, imaging, and signal extraction were performed according to Affymetrix-recommended procedures. Arrays were scanned on an Affymetrix GeneChip® Scanner 3000 7G.
Signal Processing. The signal processing implemented for the Affymetrix miRChip is a multi-step process involving probe specific signal detection calls, background estimate and correction. For each probe, a global robust multichip average (RMA) background correction is performed with Median Polish summarization. Arrays within a specific analysis experiment are normalized together using Quantile normalization. Detection calls are based on a Wilcoxon rank-sum test of the miRNA probe signal compared to the distribution of signals from GC-content matched anti-genomic probes. The raw gene expression data (.cel files) were converted to expression values using the miRNAQCTool, an open-source package available through Affymetrix. […]. RMA selection was used as a normalization method. Permutation P-values were then calculated for the t-test comparison between the DFMO treated and untreated placebo plates. These P-values were then ranked and a candidate gene list was compiled, using false discovery rate (FDR), adjusted P-value cut-offs obtained by the linear step-up method described by Benjamini and Hochberg (1995).
Next, the mechanism by which polyamines modulate oncogenesis and the effects of polyamine depletion on non-coding RNA levels was investigated by using a non-coding RNA microarray platform containing 15,644 probes, which included 1105 human mature miRNAs. MicroRNAs (miRNAs) are small endogenous RNA species known to modulate cellular signaling predominantly by binding the 3′ untranslated region (UTR) of RNA species. Binding of miRNAs to its cognate target generally results in mRNA destabilization or translational repression (Filipowicz et al., 2008). As a result of the abilities of miRNAs to modulate signaling networks involved in both development and neoplastic diseases, miRNAs serve as attractive targets for disease intervention.

[3] = system: colon cancer cells; test: Measurements of intracellular polyamine content (HPLC); type: cell-based, human
From the text: Measurements of Intracellular Polyamine Content.
Cells were homogenized in 0.2 N HClO4. Acid-soluble and acid insoluble fractions were used to determine intracellular polyamines and protein content, respectively.
It was hypothesized that the polyamines, acting independently or via eIFSA, might affect levels of non-coding RNAs.

[4] = system: HCT116 cells; test: Cellular proliferation and viability (Vi-Cell counter, trypan blue exclusion); type: cell-based, human
Protocol: Cellular Proliferation. […] At each time point, cells were trypsinized with 500 μL of trypsin and resuspended with 1.5 mL DMEM supplemented with FBS. One milliliter of the resuspension was then loaded and analyzed using a Beckman-Coulter Vi-Cell Counter. Cellular viability was measured through the trypan blue exclusion assay.

[5] = system: tumor putrescine levels; conditions: rat-tumor model, DFMO infusion; cited from earlier work
[6] = system: HMGA2; test: Immunoblot of HMGA2 protein in HCT116 cells; type: cell-based, human
Protocol: as §1
(§2) Immunoblot Analysis and Quantification of Western Blot Results.
(§3) Protein concentrations were determined using BCA assay (Pierce). […] Membranes were washed three times for 10 min and subsequently secondary antibodies were incubated with anti-mouse and anti-rabbit horseradish peroxidase conjugated antibodies (Santa Cruz Biotechnologies). Proteins were visualized by chemoluminescence using Amersham Plus ECL reagent (GE Healthcare). Bands were quantified via Western blot analysis by applying ImageJ software analysis. […] Briefly, areas under the curves were assessed for each specific band and comparisons were calculated by setting corresponding control values as 100% and each condition corrected by actin.
(§4) The LNA probes were purchased from Exiqon and synthesized using a phosphorothioate backbone.

[7] = system: Hmga2 3′ UTR; test: Hmga2 3' UTR luciferase reporter assay; type: cell-based
Protocol: Luciferase Reporter Assays.
Hmga2 3′ UTR reporter plasmids were obtained from Addgene (Plasmid 14785) and have been characterized in previous studies (Mayr et al., 2007). A mutated Hmga2 reporter plasmid with disrupted let-7 complementary sites was also obtained (Addgene plasmid 14792). HCT116 cells were transfected in 6-well plates with 1.5 μg firefly luciferase and 1.5 μg Hmga2 Renilla luciferase reporter plasmids. For functional analysis, 25 nM LNA directed against the let-7 family were transfected with appropriate plasmids. Firefly and renilla luciferase were measured 48 h after transfection using a Dual Luciferase Assay (Promega). Results were then normalized to firefly luciferase. Results are mean±SD.

[8] = system: LIN28; test: Immunoblot of LIN28 protein in HCT116 cells; type: cell-based, human
Protocol: as §1, §2, §3, §4

[9] = system: tumors harboring Ki-ras mutations; conditions: AOM-treated rats; reduced from 90%; cited from earlier work
[10] = in vivo; cited from earlier work
[11] = system: prostoglandin E2 (PGE2); conditions: 300 mg/day, one month; cited from earlier work
[12] = cited from earlier work
[13] = cited from earlier work; remark: listed apart in the source

Which results are given for `NCCCC(N)(C(=O)O)C(F)F` (racemic) [DFMO, 2-(difluoromethyl)-dl-ornithine]?
expression of mature let-7i ([1]; HCT116 cells treated with DFMO, maximal at 96 h (FIG. 1C)): Increased expression; Mean Expression Level Treatment, probe U8_st ([2]; probe U8_st): 8.90; Mean Expression Level Treatment, probe U8_x_st ([2]; probe U8_x_st): 8.86; Mean Expression Level Treatment, probe U13_st ([2]; probe U13_st): 9.81; Mean Expression Level Treatment, probe U50B_st ([2]; probe U50B_st): 10.72; Mean Expression Level Treatment, probe U50B_x_st ([2]; probe U50B_x_st): 9.86; Mean Expression Level Treatment, probe hsa-let-7i_st ([2]; probe hsa-let-7i_st): 10.74; Mean Expression Level Treatment, probe hsa-miR-22_st ([2]; probe hsa-miR-22_st): 10.38; Mean Expression Level Treatment, probe hsa-miR-193b_st ([2]; probe hsa-miR-193b_st): 8.79; Mean Expression Level Treatment, probe hsa-miR-200a-star_st ([2]; probe hsa-miR-200a-star_st): 4.89; Mean Expression Level Treatment, probe hsa-miR-221_st ([2]; probe hsa-miR-221_st): 12.50; Mean Expression Level Treatment, probe hsa-miR-494_st ([2]; probe hsa-miR-494_st): 12.64; Mean Expression Level Treatment, probe hsa-miR-517a_st ([2]; probe hsa-miR-517a_st): 1.47; Mean Expression Level Treatment, probe hsa-miR-720_st ([2]; probe hsa-miR-720_st): 14.63; Mean Expression Level Treatment, probe hsa-miR-886-3p_st ([2]; probe hsa-miR-886-3p_st): 11.26; intracellular polyamine pools ([3]; colon cancer cells, 96 h of DFMO treatment (FIG. 1A)): depletion of putrescine and spermidine; cellular viability levels ([4]; DFMO treatment, trypan blue exclusion): not altered; cellular proliferation ([4]; HCT116 cells, 5 mM DFMO (FIG. 1B)): reduce cellular proliferation; decrease in tumor putrescine levels [5]: 90%; HMGA2 protein levels ([6]; HCT116 cells, 5 mM DFMO, 72 h (FIG. 2A, 2C)): robust HMGA2 depletion; also recorded: lower HMGA2 levels; HMGA2 luciferase activity ([7]; DFMO-treated mock cells compared to mock-untreated cells (FIG. 2B)): a reduction in HMGA2 luciferase was observed; LIN28 protein levels ([8]; HCT116 cells, 5 mM DFMO, 72 h (FIG. 2A)): lowered levels of LIN28; number of tumors harboring Ki-ras mutations [9]: 36%

What does the source list for `Cc1ccc(-c2cc(C(F)(F)F)nn2-c2ccc(S(N)(=O)=O)cc2)cc1` [celecoxib, 4-[5-(4-Methylphenyl)-3-(trifluoromethyl)pyrazol-1-yl]benzenesulfonamide]?
increase in rates of heart and blood vessel disease [10]: 30%; risk of gastrointestinal side effects [10]: greater than 80%

Which “prostoglandin E2 (PGE2) levels in flat mucosa” value [11] does the source give for `CC(C)Cc1ccc(C(C)C(=O)O)cc1` (stereo not shown) [ibuprofen] here?
Its value is “significant decrease”.

Which “number of tumors harboring Ki-ras mutations” value [9] does the source give for `CN1C(C(=O)Nc2ccccn2)=C(O)c2ccccc2S1(=O)=O` [piroxicam, 4-hydroxy-2-methyl-N-2-pyridyl-2H-1,2-benzothiazine-3-carboxamide 1,1-dioxide] here?
Its value is 25%.

With `NCCCCN` [putrescine] as the molecule, how does the “let-7i levels in DFMO treated cells” value ([1]; HCT116, putrescine after DFMO administration (FIG. 1D)) read?
Its value is “rescued”.

What about the “let-7i levels in cultures not treated with drug” value ([1]; HCT116, putrescine alone (FIG. 1D)) of the same molecule?
Its value is “no observable effect”.

And the “intracellular polyamine levels in DFMO-treated cells” value ([3]; exogenous putrescine supplementation of DFMO-treated cells (FIG. 1A))?
The value was “restore intracellular polyamine levels”.

And the “cellular proliferation of DFMO-treated cells” value ([4]; HCT116 cells, 50 μM putrescine with 5 mM DFMO (FIG. 1B))?
The value was “proliferation rates similar to control levels”.

What about the “LIN28 protein levels in non-drug treated cells” value ([8]; putrescine supplementation alone (FIG. 2A)) of the same molecule?
The value was “did not alter”.

What about the “LIN28 protein levels in DFMO treated cells” value ([8]; putrescine supplementation in DFMO treated cells (FIG. 2A)) of the same molecule?
The value was “LIN28 levels comparable to vehicle control; also recorded: rescued”.

Which results are given for `CC1=C(CC(=O)O)c2cc(F)ccc2/C1=C\c1ccc([S+](C)[O-])cc1` (stereo not shown) [sulindac, (Z)-5-fluoro-2-methyl-1-((4 (methylsulfinyl)phenyl)methylene) 1H-indene-3-acetic acid]?
patients with mild gastrointestinal effects ([12]; abdominal pain and nausea most frequent): ~20%; patients with skin rash and pruritus ([12]; human, in vivo): 5%; time to peak plasma levels, with food ([13]; administered with food): 3 to 4 h; fraction of the drug absorbed ([13]; after oral administration): about 90%; time to peak plasma levels, fasting ([13]; fasting patients): about 2 h

Which “HMGA2 protein in DFMO-treated cells” value ([6]; LNA transfected DFMO-treated HCT116 cells (FIG. 2C)) does the source give for “anti-let-7 LNA: locked nucleic acid antisense oligo, phosphorothioate backbone, against let-7 seed region: ACTACCTC (SEQ ID NO: 1) (all phosphorothioate, sugars by position and methylation of C not given here; LNA oligo)” here?
The value was “rescued”.

What about the “HMGA2 protein levels, cells without DFMO” value ([6]; LNA transfected mock-treated HCT116 cells (FIG. 2C, 3C), listed as LNAs targeting let-7) of the same molecule?
The value was “increase in HMGA2 protein levels; also recorded: increased”.

And the “wild-type Hmga2 3′ UTR luciferase activity” value ([7]; 25 nM LNA, both DFMO treated and untreated HCT116 cells (FIG. 2B))?
Its value is “enhanced luciferase activity”.

What about the “mutated 3′ UTR Hmga2 luciferase activity” value ([7]; 25 nM LNA, irrespective of polyamine levels (FIG. 2B)) of the same molecule?
The value was “no observable effect”.

What about the LIN28 expression ([8]; 25 nM anti-let-7 LNA, HCT116 cells (FIG. 3C)) of the same molecule?
Its LIN28 expression is “little effect”.

Reference: US10151756B2, “Predictive markers for polyamine inhibitor cancer therapies” (ARIZONA BOARD OF REGENTS ON BEHALF OF UNIVERSITY OF ARIZONA, priority 2012, dated 2018)
